Values joined by “and” are separate entries in the source; they are usually repeats but may differ in a detail not shown here. Equal entries are not always repeated. Where two headings read alike, the source gives them in different places.
Legend:
[1] = food/PPI effect on single-dose PK in healthy volunteers (phase 1); type: in vivo, human; conditions: for CL/F: read-out: CL/F_Obs, Geometric Mean (Geometric CV %) (converted); for Vd/F: read-out: Vz/F, Geometric Mean (Geometric CV %)
Protocol: The primary endpoints were AUCinf and Cmax. Additional parameters measured included AUClast and Tmax.
This phase 1, open-label study included a crossover, fed/fasted cohort and a fixed-sequence PPI cohort. For the fed/fasted cohort, healthy male volunteers received a single oral dose of Compound A 200 mg in a fasted state during treatment A and in a fed state, following a high-calorie/high-fat meal, during treatment B. Participants were randomized to a dosing sequence of treatments AB or BA. For the PPI cohort, a single oral dose of Compound A 300 mg was administered alone in a fed state during treatment C, and during treatment D, participants received esomeprazole 40 mg for 5 days prior to a single oral dose of Compound A 300 mg on day 5 in a fed state. Participants were assigned to a fixed-dosing sequence of treatments CD. There was a 24-day washout period between Compound A treatments. PK blood samples were collected predose and at selected times up to 312 hours post-Compound A dose. Primary endpoints were area under the plasma concentration-time curve from the time of dosing extrapolated to infinity (AUCinf) and maximum plasma concentration (Cmax) of Compound A. Secondary endpoints included additional PK parameters and safety and tolerability.
The effect of food and a PPI on the PK of Compound A was evaluated in healthy participants. PK results are presented in Tables 2 and 3 and are summarized here.

AR WT = target: T1, AR WT (Homo sapiens, UniProt P10275); experiment: AR degradation in T-Rex-293 cell line, wild-type AR; type: cell-based; conditions: T-Rex-293, ELISA
T1 construct: expressed in transfected cells; host or cells: T-REx-293
Protocol: FIG. 3 is a graph showing Compound A's ability to degrade clinically relevant mutated forms AR.
Plasmids expressing AR WT or the indicated AR mutants were stably transfected into HEK293 cells. Each cell line was treated with indicated concentrations of Compound A for 24 hours. AR levels were determined by AR ELISA without background subtraction. […]
To assess the ability of Compound A to degrade variants of the AR, vectors expressing wild-type AR or mutant AR proteins harboring clinically observed mutations in the ligand binding domain (13 with single amino acid changes or 4 with 2 amino acid changes) (Azad A. A., Volik S. V., Wyatt A. W., et al. Androgen receptor gene aberrations in circulating cell-free DNA: biomarkers of therapeutic resistance in castration-resistant prostate cancer. Clin Cancer Res. 2015; 21:2315-2324; Robinson D., Van Allen E. M., Wu Y. M., et al. Integrative clinical genomics of advanced prostate cancer. Cell. 2015; 161:1215-1228; Ledet E. M., Lilly M. B., Sonpavde G., et al. Comprehensive analysis of AR alterations in circulating tumor DNA from patients with advanced prostate cancer. Oncologist.

[2] = 200 mg, fed (test) vs fasted (reference)
[3] = 300 mg, fed, esomeprazole 40 mg
[4] = male, human, plasma, oral, 40 mg Esomeprazole + 300 mg
[5] = male, human, plasma, oral, 200 mg, Fasted
[6] = male, human, plasma, oral, 200 mg, Fed
[7] = male, human, plasma, oral, 300 mg, 300 mg Alone

T1 sequence (P10275 whole entry): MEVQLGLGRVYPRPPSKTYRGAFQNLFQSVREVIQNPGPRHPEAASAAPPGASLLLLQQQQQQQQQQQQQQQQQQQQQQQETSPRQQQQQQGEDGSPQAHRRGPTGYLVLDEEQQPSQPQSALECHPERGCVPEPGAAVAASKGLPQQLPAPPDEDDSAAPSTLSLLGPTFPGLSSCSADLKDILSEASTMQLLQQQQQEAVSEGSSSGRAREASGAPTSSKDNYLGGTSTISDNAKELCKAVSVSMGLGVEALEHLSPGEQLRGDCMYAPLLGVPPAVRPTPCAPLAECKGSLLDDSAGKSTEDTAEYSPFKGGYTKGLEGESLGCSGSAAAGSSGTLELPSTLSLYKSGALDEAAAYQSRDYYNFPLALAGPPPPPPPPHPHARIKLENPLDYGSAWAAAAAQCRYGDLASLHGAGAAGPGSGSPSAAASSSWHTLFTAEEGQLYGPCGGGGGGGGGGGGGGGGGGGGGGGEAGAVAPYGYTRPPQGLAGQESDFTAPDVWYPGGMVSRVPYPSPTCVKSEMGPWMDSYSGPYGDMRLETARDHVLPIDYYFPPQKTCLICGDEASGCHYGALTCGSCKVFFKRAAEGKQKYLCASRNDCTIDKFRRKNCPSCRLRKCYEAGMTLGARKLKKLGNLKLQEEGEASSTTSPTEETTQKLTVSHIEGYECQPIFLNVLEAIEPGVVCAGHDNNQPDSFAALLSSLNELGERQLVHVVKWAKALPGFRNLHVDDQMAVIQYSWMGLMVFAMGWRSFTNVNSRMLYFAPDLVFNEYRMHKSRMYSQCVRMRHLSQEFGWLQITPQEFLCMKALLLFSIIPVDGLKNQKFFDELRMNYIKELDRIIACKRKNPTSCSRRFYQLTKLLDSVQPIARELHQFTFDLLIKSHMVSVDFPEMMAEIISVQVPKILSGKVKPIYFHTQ

Question: What does the source list for COc1cc(O[C@H]2C(C)(C)[C@H](NC(=O)c3ccc(N4CCC(CN5CCN(c6ccc(C(=O)N[C@H]7CCC(=O)NC7=O)c(F)c6)CC5)CC4)cc3)C2(C)C)ccc1C#N [Compound A, 4-(4-((1-(4-(((1R,3R)-3-(4-cyano-3-methoxyphenoxy)-2,2,4,4-tetramethylcyclobutyl)carbamoyl)phenyl)piperidin-4-yl)methyl)piperazin-1-yl)-N—((S)-2,6-dioxopiperidin-3-yl)-2-fluorobenzamide]?
Answer: delay of median Tmax, fed vs fasted ([1]; 200 mg single oral dose): ≈ 4 hours; AUCinf Geometric LS Mean Ratio (fed/fasted), relative bioavailability [1, 2]: 306.34% and 306.3%; AUClast Geometric LS Mean Ratio (fed/fasted), relative bioavailability [1, 2]: 313.03% and 313.0%; Cmax Geometric LS Mean Ratio (fed/fasted), relative bioavailability [1, 2]: 394.46% and 394.5%; AUCinf Geometric LS Mean Ratio (with esomeprazole/alone) ([1]; 300 mg, fed): 89.2%; AUClast Geometric LS Mean Ratio (with esomeprazole/alone) ([1]; 300 mg, fed): 88.1%; Cmax Geometric LS Mean Ratio (with esomeprazole/alone) ([1]; 300 mg, fed): 80.16% and 80.2%; reduction in AUCinf with esomeprazole vs Compound A alone [1, 3]: ~11%; reduction in Cmax with esomeprazole vs Compound A alone [1, 3]: ≈ 20% and ~20%; effect of esomeprazole on Compound A exposure ([1]; 300 mg, moderate-fat fed conditions): small effect, but not clinically significant; increase of extent of systemic exposure (AUCinf), fed vs fasted ([1]; high fat meal vs fasted, humans): 3.1 fold and ~3 fold; AUC(0-inf) ([1]; male, human, plasma, oral, 40 mg Esomeprazole + 300 mg, read-out: AUCinf-Obs, Geometric Mean (Geometric CV %)): 9720 ng·h/mL; AUC(0-t) ([1]; male, human, plasma, oral, 40 mg Esomeprazole + 300 mg, read-out: AUClast, Geometric Mean (Geometric CV %)): 9370 ng·h/mL; CL/F [1, 4]: 515 mL/min; Cmax ([1]; male, human, plasma, oral, 40 mg Esomeprazole + 300 mg, read-out: Cmax, Geometric Mean (Geometric CV %)): 117 ng/mL; half-life ([1]; male, human, plasma, oral, 40 mg Esomeprazole + 300 mg, read-out: T1/2, Geometric Mean (Geometric CV %) (converted)): 65.5 h; Tmax ([1]; male, human, plasma, oral, 40 mg Esomeprazole + 300 mg, read-out: Tmax): 10 h; Vd/F [1, 4]: 2920 L; AUC(0-inf) ([1]; male, human, plasma, oral, 200 mg, 200 mg alone, fasted, read-out: AUCinf, Geometric LS Mean): 3460 ng·h/mL; AUC(0-t) ([1]; male, human, plasma, oral, 200 mg, 200 mg alone, fasted, read-out: AUClast, Geometric LS Mean): 3300 ng·h/mL; Cmax ([1]; male, human, plasma, oral, 200 mg, 200 mg alone, fasted, read-out: Cmax, Geometric LS Mean): 36 ng/mL; AUC(0-inf) ([1]; male, human, plasma, oral, 200 mg, 200 mg alone, fed, read-out: AUCinf, Geometric LS Mean): 10600 ng·h/mL; AUC(0-t) ([1]; male, human, plasma, oral, 200 mg, 200 mg alone, fed, read-out: AUClast, Geometric LS Mean): 10300 ng·h/mL; Cmax ([1]; male, human, plasma, oral, 200 mg, 200 mg alone, fed, read-out: Cmax, Geometric LS Mean): 142 ng/mL; AUC(0-inf) ([1]; male, human, plasma, oral, 200 mg, Fasted, read-out: AUCinf-Obs, Geometric Mean (Geometric CV %)): 3460 ng·h/mL; AUC(0-t) ([1]; male, human, plasma, oral, 200 mg, Fasted, read-out: AUClast, Geometric Mean (Geometric CV %)): 3300 ng·h/mL; CL/F [1, 5]: 964 mL/min; Cmax ([1]; male, human, plasma, oral, 200 mg, Fasted, read-out: Cmax, Geometric Mean (Geometric CV %)): 36.1 ng/mL; half-life ([1]; male, human, plasma, oral, 200 mg, Fasted, read-out: T1/2, Geometric Mean (Geometric CV %) (converted)): 65.3 h; Tmax ([1]; male, human, plasma, oral, 200 mg, Fasted, read-out: Tmax): 7.75 h; Vd/F [1, 5]: 5450 L; AUC(0-inf) ([1]; male, human, plasma, oral, 200 mg, Fed, read-out: AUCinf-Obs, Geometric Mean (Geometric CV %)): 10600 ng·h/mL; AUC(0-t) ([1]; male, human, plasma, oral, 200 mg, Fed, read-out: AUClast, Geometric Mean (Geometric CV %)): 10300 ng·h/mL; CL/F [1, 6]: 315 mL/min; Cmax ([1]; male, human, plasma, oral, 200 mg, Fed, read-out: Cmax, Geometric Mean (Geometric CV %)): 142 ng/mL; half-life ([1]; male, human, plasma, oral, 200 mg, Fed, read-out: T1/2, Geometric Mean (Geometric CV %) (converted)): 58.7 h; Tmax ([1]; male, human, plasma, oral, 200 mg, Fed, read-out: Tmax): 12 h; Vd/F [1, 6]: 1600 L; AUC(0-inf) ([1]; male, human, plasma, oral, 200 mg, fasted, read-out: AUCinf): 3460 ng·h/mL; AUC(0-inf) ([1]; male, human, plasma, oral, 200 mg, fed (high-fat meal), read-out: AUCinf): 10600 ng·h/mL; half-life ([1]; male, human, plasma, oral, 200 mg, under both fed and fasted conditions, read-out: mean T1/2): 60 to 76 h; Tmax ([1]; male, human, plasma, oral, 300 mg with esomeprazole 40 mg, fed, read-out: median Tmax): 10 h; AUC(0-inf) ([1]; male, human, plasma, oral, 300 mg, 300 mg Alone, read-out: AUCinf-Obs, Geometric Mean (Geometric CV %)): 10900 ng·h/mL; AUC(0-t) ([1]; male, human, plasma, oral, 300 mg, 300 mg Alone, read-out: AUClast, Geometric Mean (Geometric CV %)): 10600 ng·h/mL; CL/F [1, 7]: 459 mL/min; Cmax ([1]; male, human, plasma, oral, 300 mg, 300 mg Alone, read-out: Cmax, Geometric Mean (Geometric CV %)): 146 ng/mL; half-life ([1]; male, human, plasma, oral, 300 mg, 300 mg Alone, read-out: T1/2, Geometric Mean (Geometric CV %) (converted)): 58.4 h; Tmax ([1]; male, human, plasma, oral, 300 mg, 300 mg Alone, read-out: Tmax): 7 h; Vd/F [1, 7]: 2320 L; AUC(0-inf) ([1]; male, human, plasma, oral, 300 mg, 300 mg alone, fed, read-out: AUCinf, Geometric LS Mean): 10900 ng·h/mL; AUC(0-t) ([1]; male, human, plasma, oral, 300 mg, 300 mg alone, fed, read-out: AUClast, Geometric LS Mean): 10600 ng·h/mL; Cmax ([1]; male, human, plasma, oral, 300 mg, 300 mg alone, fed, read-out: Cmax, Geometric LS Mean): 146 ng/mL; Tmax ([1]; male, human, plasma, oral, 300 mg, 300 mg alone, fed, read-out: median Tmax): 7 h; AUC(0-inf) ([1]; male, human, plasma, oral, 300 mg, 300 mg with esomeprazole, fed, read-out: AUCinf, Geometric LS Mean): 9720 ng·h/mL; AUC(0-t) ([1]; male, human, plasma, oral, 300 mg, 300 mg with esomeprazole, fed, read-out: AUClast, Geometric LS Mean): 9370 ng·h/mL; Cmax ([1]; male, human, plasma, oral, 300 mg, 300 mg with esomeprazole, fed, read-out: Cmax, Geometric LS Mean): 117 ng/mL; delay of median Tmax with esomeprazole ([1]; male, human, plasma, oral, 300 mg, fed): 3 h; Tmax ([1]; male, human, plasma, po, 200 mg, 200 mg single oral dose, fasted, read-out: median Tmax): 7.75 h; Tmax ([1]; male, human, plasma, po, 200 mg, 200 mg single oral dose, fed (high-fat meal), read-out: median Tmax): 12 h; DC50 (AR WT): 1.5 nM
